Experimental data taken from patent publication US20060252683A1, “Preparation of a peptide compound (SYRAPRO-2000) and its use for the activation of protein phosphatase-2A1 enzyme” (priority 2005, published 2006).

Tests used:
Assay type in all cases: cell-based, human
[1] = Cell viability (tryphan blue) and cell death of HTB-3 cells; settings: human, HTB-3 cells (glioblastoma cell line), 2000 nM, 8 days of incubation, read-out: treated cells non viable (tryphan blue staining)
Method: (§1) Panel A, HTB-3 cells (a human glioblastoma cell line) were grown in DMEM and 5% (v/v) fetal bovine serum. Cells (10^6 cells per ml) were treated (+) or not (−) with 2000 nM SYRAPRO-2000. Cell viability was then determined by counting the cells following tryphan blue staining after 4, 8 and 12 days of incubation. Panel B, Following treatment with or without SYRAPRO-2000 for 8 days, HTB-3 cells grown on slides were analyzed by phase contrast microscopy (Row A), by fluorescence microscopy following staining with FITC labeled annexin V (apoptotic cell death) (Row B) or propidium iodide (oncolytic cell death) on a Cells were analyzed on a Zeiss Axioplan 2 imaging universal microscope (Thornwood, N.Y.). Phase contrast images and Green (FITC labeled annexin V) and red (propidium iodide) fluorescence images were obtained. […]
(§2) HTB-3 cells are grown in DMEM supplemented with 5% (v/v) fetal bovine serum and antibiotics and treated or not with 2 μM SYRAPRO-2000 for 8 days. Following treatment with SYRAPRO-2000, cell viability are then determined by counting the cells following tryphan blue staining. […] Following treatment with SYRAPRO-2000, cells grown on slides by were analyzed by phase contrast microscopy and fluorescence microscopy following staining with FITC labeled annexin V (an indicator of apoptotic cell death) or propidium iodide (an indicator of oncolytic or necrotic cell death). […]

HTB-3 cells = experiment: as above; settings: 2000 nM, 8 days
Method: as §1, §2

[2] = Cell viability (tryphan blue) and cell death of Jurkat cells; settings: human, Jurkat cells (CD4+ T cell line), 1000 nM, four hours of incubation, read-out: treated cells non viable (tryphan blue staining)
Method: (§3) Panel A, Jurkat cells (a CD^4+ T cell line) were grown in RPMI 1640 and 10% (v/v) fetal bovine serum. Cells (10^6 cells per ml) were treated (+) or not (−) with 1000 nM SYRAPRO-2000. Cell viability was then determined by counting the cells following tryphan blue staining after 1, 2 and 4 hours of incubation. Panel B, Following treatment with SYRAPRO-2000 for 1, 2 and 4 hours as indicated, Jurkat cells (10^6/ml) were washed with RPMI plus 2% fetal bovine serum and then deposited onto glass slides by cytospinning. Phase contrast images were then obtained with white light emission on a Zeiss Axioplan 2 imaging universal microscope (Thornwood, N.Y.). […]
(§4) Jurkat cells are grown in RPMI 1680 medium supplemented with 5% (v/v) fetal bovine serum and antibiotics and treated or not with 1 μM of SYRAPRO-2000 for 1 hour, 2 hours and 4 hours. Following treatment with SYRAPRO-2000, cell viability are then determined by counting the cells following tryphan blue staining. […]
(§5) Following treatment of cells with SYRAPRO-2000, cells were examined by phase contrast microscopy or by fluorescent microscopy following staining with FITC labeled annexin V (apoptotic cell death) and propidium iodide (oncolytic cell death). Cells were analyzed on a Zeiss Axioplan 2 imaging universal microscope (Thornwood, N.Y.). […] Green (FITC labeled annexin V) and red (propidium iodide) fluorescence images were obtained. […]

Jurkat cells = experiment: as above; settings: 1000 nM
Method: as §3, §4, §5

## CC[C@H](C)[C@H](NC(=O)[C@H](CCCNC(=N)N)NC(=O)[C@H](CO)NC(=O)[C@H](Cc1c[nH]cn1)NC(=O)[C@H](CCCNC(=N)N)NC(=O)[C@H](CS)NC(=O)CNC(=O)[C@@H](NC(=O)[C@H](CCCNC(=N)N)NC(=O)[C@H](Cc1ccccc1)NC(=O)[C@@H](N)Cc1c[nH]cn1)[C@@H](C)CC)C(=O)NCC(=O)N[C@H](C(=O)N[C@H](C(=O)N[C@@H](CCCNC(=N)N)C(=O)N[C@@H](CCC(N)=O)C(=O)N[C@@H](CCCNC(=N)N)C(=O)N[C@@H](CCCNC(=N)N)C(=O)N[C@@H](C)C(=O)N[C@@H](CCCNC(=N)N)C(=O)N[C@@H](CC(N)=O)C(=O)NCC(=O)N[C@@H](C)C(=O)N[C@@H](CO)C(=O)N[C@@H](CCCNC(=N)N)C(=O)N[C@@H](CO)C(=O)O)[C@@H](C)O)C(C)C [SYRAPRO-2000]
[1]
  cytotoxicity at 8 days, 2 µM: ~50%
HTB-3 cells
  mode of cell death (FITC-annexin V and propidium iodide staining): apoptosis and oncolysis
[2]
  cytotoxicity at 4 h, 1 µM: ~60%
Jurkat cells
  mode of cell death (phase contrast microscopy): oncolysis
